Laboratory results reported in patent US6841684B2, “Imidiazoles having reduced side effects” (Allergan, Inc., priority 1997, dated 2005).

Biological target: T1, rat α2B (RNG gene) receptor (Rattus norvegicus, UniProt P19328)
T1 construct: expressed in transfected cells; host or cells: NIH-3T3 cells, calcium phosphate cotransfection
T1 sequence (P19328 1-453): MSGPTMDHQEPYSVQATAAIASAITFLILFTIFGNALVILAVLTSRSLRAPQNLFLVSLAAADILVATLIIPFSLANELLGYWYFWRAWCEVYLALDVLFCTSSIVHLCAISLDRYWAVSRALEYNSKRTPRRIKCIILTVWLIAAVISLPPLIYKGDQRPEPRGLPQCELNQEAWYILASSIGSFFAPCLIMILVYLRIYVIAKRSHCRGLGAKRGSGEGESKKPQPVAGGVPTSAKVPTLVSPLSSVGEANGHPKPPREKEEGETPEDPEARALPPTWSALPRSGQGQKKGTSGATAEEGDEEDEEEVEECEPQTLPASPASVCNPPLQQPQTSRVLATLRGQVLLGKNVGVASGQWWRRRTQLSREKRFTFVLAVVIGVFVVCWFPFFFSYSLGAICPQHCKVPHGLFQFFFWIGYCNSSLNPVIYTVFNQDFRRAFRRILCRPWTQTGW
Test: RSAT (Receptor Selection and Amplification Technology) assay, alpha 2B
Assay type: cell-based
Conditions: ratio of maximal effect to that of standard full agonist oxymetazoline
Description: This preferential activity can be determined in a variety of functional assays such as Cyclic AMP Production, Shimizu et al, J. Neurochem. […] In the study below, the RSAT assay on cells that have been transiently transfected with the human α2A (c10 gene), rat α2B (RNG gene) and human α2C (c4 gene) receptors was used.
The assay measures a receptor-mediated loss of contact inhibition that results in selective proliferation of receptor-containing cells in a mixed population of confluent cells. The increase in cell number is assessed with an appropriate transfected marker gene such as b-galactosidase, the activity of which can be easily measured in a 96-well format. Receptors that activate the G protein, Gq, elicit this response. Alpha2 receptors, which normally couple to Gi, activate the RSAT response when coexpressed with a hybrid Gq protein that has a Gi receptor recognition domain, called Gq/i5^2.
NIH-3T3 cells are plated at a density of 2×10^6 cells in 15 cm dishes and maintained in Dulbecco's modified Eagle's medium supplemented with 10% calf serum. One day later, cells are cotransfected by calcium phosphate precipitation with mammalian expression plasmids encoding p-SV-b-galactosidase (5-10 mg), receptor (1-2 mg) and G protein (1-2 mg). 40 mg salmon sperm DNA may also be included in the transfection mixture. Fresh media is added on the following day and 1-2 days later, cells are harvested and frozen in 50 assay aliquots. Cells are thawed and 100 ml added to […] aliquots of various concentrations of drugs in triplicate in 96-well dishes. Incubations continue 72-96 hr at 37°. After washing with phosphate-buffered saline, b-galactosidase enzyme activity is determined by adding 200 ml of the chromogenic substrate (consisting of 3.5 mM o-nitrophenyl-b-D-galactopyranoside and 0.5% nonidet P-40 in phosphate buffered saline), incubating overnight at 30° and measuring optical density at 420 nm. The absorbence is a measure of enzyme activity, which depends on cell number and reflects a receptor-mediated cell proliferation. The EC50 and maximal effect of each drug at each alpha2 receptor is determined. The efficacy or intrinsic activity is calculated as a ratio of the maximal effect of the drug to the maximal effect of a standard full agonist for each receptor subtype.

| Compound | Intrinsic Activity Relative to Oxymetazoline, Alpha 2B |
| --- | --- |
| C=CC1=CCC(Cc2c[nH]cn2)CC1 (stereo not drawn) [Example 1-A] | 0.7 |
| c1ccc2c(c1)SCCC2Cc1cnc[nH]1 (stereo not drawn) [Example 1-B] | 0.7 |
| c1ccc2c(c1)OCCC2Cc1cnc[nH]1 (stereo not drawn) [Example 1C] | 0.8 |
| CCC1=C(C)CCC(Cc2c[nH]cn2)C1 (stereo not drawn) [Example 1D] | 0.6 |
| COCC1=CCCC(Cc2c[nH]cn2)C1 (stereo not drawn) [Example 1E] | 1 |
| C1=C(Cc2c[nH]cn2)CSc2ccccc21 [Example 1F] | 0.8 |
| CC1=C(Cc2c[nH]cn2)COc2ccccc21 [Example 1G] | 0.6 |
| c1ccc2c(c1)CCCC2Cc1c[nH]cn1 (stereo not drawn) [Example 1H] | 0.6 |
| CC1=CCCCC1Cc1cnc[nH]1 (stereo not drawn) [Example 1I] | 0.8 |
| C1=C(Cc2c[nH]cn2)COc2ccccc21 [Example 1J] | 0.5 |
| C#CC1=CCC(Cc2c[nH]cn2)CC1 (stereo not drawn) [Example 1K] | 0.6 |
| C1=C(C2CC2)CCCC1Cc1c[nH]cn1 (stereo not drawn) [Example 1L] | 0.7 |
| CC1=CCCCC1Cc1c[nH]cn1 (stereo not drawn) [Example 1M] | 0.6 |
| CCC1=CCCCC1Cc1c[nH]cn1 (stereo not drawn) [Example 1N] | 0.7 |
| C#CC1=CC(Cc2c[nH]cn2)CCC1 (stereo not drawn) [Example 1O] | 0.8 |
| CCC1=CC(Cc2c[nH]cn2)CCC1 (stereo not drawn) [Example 1P] | 0.7 |
| CCC1=CC(Cc2c[nH]cn2)CC1 (stereo not drawn) [Example 1Q] | 0.75 |
| COc1ccc2c(c1)CC(Cc1c[nH]cn1)CC2.Cl (stereo not drawn) [Example B-1, 4(5)-(7-methoxy-1,2,3,4-tetrahydronaphthalen-2-ylmethyl)-1H-imidazole, hydrogen chloride salt] | 0.45 |
| COc1ccc2c(c1)C(=O)C(Cc1c[nH]cn1)CC2 (stereo not drawn) [Example B-1a, 2-(1H-imidazol-4(5)-ylmethyl)-7-methoxy-3,4-dihydro-2H-naphthalen-1-one] | 0.6 |
| O=C1/C(=C/c2c[nH]cn2)COc2ccccc21 [Example B-2a, 3-(1H-imidazol-4(5)-ylmethylene)chroman-4-one] | 0.63 |
| OC1c2ccccc2OCC1Cc1c[nH]cn1 (stereo not drawn) [Example B-2c, 3-(1H-imidazol-4(5)-ylmethyl)chroman-4-ol] | 0.65 |

| Compound | Intrinsic Activity Relative to Oxymetazoline, Alpha 2B |
| --- | --- |
| O=C1c2ccccc2CCC1Cc1c[nH]cn1 (stereo not drawn) [Example B-3a] | 0.8 |
| CC1CC(Cc2c[nH]cn2)Cc2ccccc21 (stereo not drawn) [Example B-4a, 4(5)-(4-methyl-1,2,3,4-tetrahydronaphthalen-2-ylmethyl)-1H-imidazole] | 0.75 |
| CC1CC(Cc2c[nH]cn2)C(=O)c2ccccc21 (stereo not drawn) [Example B-4b, 2-(1H-imidazol-4(5)-ylmethyl)-4-methyl-3,4-dihydro-2H-naphthalen-1-one] | 0.7 |
| O=C1/C(=C/c2c[nH]cn2)CSc2ccccc21 [Example B-5a, 3-(1H-imidazol-4(5)-ylmethylene)thiochroman-4-one] | 0.5 |
| O=C1c2ccccc2SCC1Cc1c[nH]cn1 (stereo not drawn) [Example B-5b, 3-(1H-imidazol-4(5)-ylmethyl)thiochroman-4-one] | 0.5 |
| O=C1/C(=C/c2c[nH]cn2)Cc2ccccc21 [Example B-7a, 2-(1-H-imidazol-4(5)-ylmethylene)indan-1-one] | 0.3 |
| O=C1c2ccccc2CC1Cc1c[nH]cn1 (stereo not drawn) [Example B-7b, 2-(1H-imidazol-4(5)-ylmethyl)indan-1-one] | 0.3 |
| c1ccc2c(c1)CC(Cc1c[nH]cn1)C2 [Example B-7c, 4(5)-indan-2-ylmethyl-1H-imidazole] | 0.9 |
| Cc1ccc2c(c1)C(=O)C(Cc1c[nH]cn1)CC2 (stereo not drawn) [Example B-8a, 2-(1-H-imidazol-4(5)-ylmethyl)-7-methyl-3,4-dihydro-2H-naphthalen-1-one] | 0.4 |
| Cc1ccc2c(c1)CC(Cc1c[nH]cn1)CC2.Cl (stereo not drawn) [Example B-8b, 4(5)-(7-methyl-1,2,3,4-tetrahydronaphthalen-2-ylmethyl)-1H-imidazole, hydrogen chloride salt] | 0.6 |
| Cl.c1nc(CC2CCC3SCCC3C2)c[nH]1 (stereo not drawn) [Example B-9c, 5-(octahydrobenzo[b]thiophen-5-ylmethyl)-1H-imidazole, hydrochloride] | 0.3 |
| CC1(C)CC(Cc2c[nH]cn2)Cc2ccccc21 (stereo not drawn) [Example B-10, 4(5)-(4,4-dimethyl-1,2,3,4-tetrahydronaphthalen-2-ylmethyl)-1H-imidazole] | 0.3 |
| c1ccc2c(c1)CCCC(Cc1c[nH]cn1)C2 (stereo not drawn) [Example B-11a, 4(5)-(6,7,8,9-tetrahydro-5H-benzocyclohepten-6-ylmethyl)-1H-imidazole] | 0.9 |
| O=C1/C(=C/c2c[nH]cn2)CCCc2ccccc21 [Example B-11b, 6-(1H-imidazol-4(5)-ylmethylene)-6,7,8,9-tetrahydrobenzocyclohepten-5-one] | 0.3 |
| c1nc(Cc2ccoc2)c[nH]1 [Example C-6, 4(5)-furan-3-ylmethyl-1H-imidazole] | 0.67 |
| c1ccc2oc(Cc3c[nH]cn3)cc2c1 [Example C-10, 4(5)-benzofuran-2-ylmethyl-1H-imidazole] | 0.48 |
| CCc1ccc(Cc2c[nH]cn2)o1 [Example C-11, 4(5)-(5-ethylfuran-2-ylmethyl)-1H-imidazole] | 0.5 |
| Brc1csc(Cc2c[nH]cn2)c1 [Example C-12, 4(5)-(4-bromothiophen-2-ylmethyl)-1H-imidazole] | 1.3 |
| c1ccc(-c2csc(Cc3c[nH]cn3)c2)cc1 [Example C-13, 4(5)-(4-phenylthiophen-2-ylmethyl)-1H-imidazole] | 0.5 |
| Cc1csc(Cc2c[nH]cn2)c1.Cl [Example C-14, 4(5)-(4-methylthiophen-2-ylmethyl)-1H-imidazole, hydrochloride salt] | 0.7 |
| Cc1ccccc1C1C2CCC(C2)C1/N=C1/NCCO1 [Example D-2, oxazolidin-2-ylidene-(3-o-tolylbicyclo[2.2.1]hept-2-yl) amine] | 0.75 |
